Results taken from ChEMBL document CHEMBL3621115, “Discovery of 6-phenylimidazo[2,1-b]thiazole derivatives as a new type of FLT3 inhibitors” (Bioorg Med Chem Lett, 2015).
pIC50: −log10 of the molar value.

Columns and labels:
HeLa = experiment: Cytotoxicity against human HeLa cells assessed as cell viability after 72 hrs by MTT assay; assay type: functional, cell-based
MV4-11 = experiment: Cytotoxicity against human MV4-11 cells assessed as cell viability after 72 hrs by MTT assay; assay type: functional, cell-based; conditions: MV4-11, 72 h
[1] = target: T1, Receptor-type tyrosine-protein kinase FLT3 (Homo sapiens, UniProt P36888); experiment: Inhibition of human recombinant Flt3
T1 sequence (P36888 whole entry): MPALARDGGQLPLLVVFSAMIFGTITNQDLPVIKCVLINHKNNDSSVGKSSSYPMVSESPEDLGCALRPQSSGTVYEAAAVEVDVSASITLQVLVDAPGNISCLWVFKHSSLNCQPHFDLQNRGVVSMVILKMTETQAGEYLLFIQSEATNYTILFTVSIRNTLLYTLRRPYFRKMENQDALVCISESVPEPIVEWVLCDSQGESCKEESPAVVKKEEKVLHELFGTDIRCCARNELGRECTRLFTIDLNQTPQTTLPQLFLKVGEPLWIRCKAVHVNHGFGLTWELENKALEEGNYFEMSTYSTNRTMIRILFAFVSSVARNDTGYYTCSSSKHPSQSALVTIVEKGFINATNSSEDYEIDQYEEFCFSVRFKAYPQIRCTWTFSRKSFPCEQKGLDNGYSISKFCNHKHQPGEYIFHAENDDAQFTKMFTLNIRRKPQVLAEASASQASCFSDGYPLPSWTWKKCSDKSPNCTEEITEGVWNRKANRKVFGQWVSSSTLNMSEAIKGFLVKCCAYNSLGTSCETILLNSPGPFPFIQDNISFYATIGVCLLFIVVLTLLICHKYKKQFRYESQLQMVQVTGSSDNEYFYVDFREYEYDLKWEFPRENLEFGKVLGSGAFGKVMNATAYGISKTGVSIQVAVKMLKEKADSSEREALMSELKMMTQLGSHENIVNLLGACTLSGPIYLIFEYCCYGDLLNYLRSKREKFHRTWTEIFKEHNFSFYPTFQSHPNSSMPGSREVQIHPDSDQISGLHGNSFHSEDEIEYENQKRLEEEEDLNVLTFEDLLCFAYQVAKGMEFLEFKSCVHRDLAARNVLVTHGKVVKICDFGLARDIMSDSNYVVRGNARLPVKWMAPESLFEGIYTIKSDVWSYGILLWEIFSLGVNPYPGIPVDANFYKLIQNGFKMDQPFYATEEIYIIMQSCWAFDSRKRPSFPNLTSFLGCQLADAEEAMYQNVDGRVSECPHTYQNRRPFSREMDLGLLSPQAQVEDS

CCCS(=O)(=O)Nc1ccc(-c2cn3c(C(=O)OCC)csc3n2)cc1
pIC50 (HeLa): < 4.70 | pIC50 (MV4-11): < 4.70

C=CC(=O)Nc1cccc(-c2cn3c(C(=O)OCC)csc3n2)c1
pIC50 (HeLa): < 4.70 | pIC50 (MV4-11): < 4.70

CCOC(=O)c1csc2nc(-c3ccc(NS(=O)(=O)c4ccc(C)cc4)cc3)cn12
pIC50 (HeLa): < 4.70 | pIC50 (MV4-11): < 4.70

C=CC(=O)Nc1ccc(-c2cn3c(C(=O)OCC)csc3n2)cc1
pIC50 (HeLa): < 4.70 | pIC50 (MV4-11): 5.53

CCOC(=O)c1csc2nc(-c3cccc(NC(=O)CCl)c3)cn12
pIC50 (HeLa): 4.70 | pIC50 (MV4-11): 4.75

CCOC(=O)c1csc2nc(-c3ccc(NC(=O)Nc4ccc(Br)cn4)cc3)cn12
pIC50 (HeLa): < 4.70 | pIC50 (MV4-11): 5.61

CCOC(=O)c1csc2nc(-c3ccc(NC(=O)c4ccco4)cc3)cn12
pIC50 (HeLa): < 4.70 | pIC50 (MV4-11): 5.00

CC(C)(C)c1cc(NC(=O)Nc2ccc(-c3cn4c(C(=O)NCCN5CCOCC5)csc4n3)cc2)no1
pIC50 (HeLa): < 4.70 | pIC50 (MV4-11): 7.79

CC(C)(C)c1cc(NC(=O)Nc2ccc(-c3cn4c(C(=O)OCCN5CCOCC5)csc4n3)cc2)no1
pIC50 (HeLa): < 4.70 | pIC50 (MV4-11): 6.84

CC(C)(C)c1cc(NC(=O)Nc2ccc(-c3cn4c(C(=O)NCCO)csc4n3)cc2)no1
pIC50 (HeLa): < 4.70 | pIC50 (MV4-11): 7.81

CCOC(=O)c1csc2nc(-c3ccc(NC(=O)Nc4ccccc4)cc3)cn12
pIC50 (HeLa): < 4.70 | pIC50 (MV4-11): < 4.70

CC(C)(C)c1cc(NC(=O)Nc2ccc(-c3cn4c(C(=O)NCCS(C)(=O)=O)csc4n3)cc2)no1
pIC50 (HeLa): < 4.70 | pIC50 (MV4-11): 8.31 | pIC50 [1]: 7.02

CCOC(=O)c1csc2nc(-c3ccc(NC(=O)CC)cc3)cn12
pIC50 (HeLa): < 4.70 | pIC50 (MV4-11): 5.02

CNC(=O)c1cc(Oc2ccc(NC(=O)Nc3ccc(Cl)c(C(F)(F)F)c3)cc2)ccn1 [SORAFENIB]
pIC50 (HeLa): 5.28 | pIC50 (MV4-11): 8.15

CCOC(=O)c1csc2nc(-c3ccc(NC(=O)Nc4cc(C(C)(C)C)on4)cc3)cn12
pIC50 (HeLa): < 4.70 | pIC50 (MV4-11): 6.56

CCOC(=O)c1csc2nc(-c3cccc(NC(=O)CC)c3)cn12
pIC50 (HeLa): < 4.70 | pIC50 (MV4-11): < 4.70

CCOC(=O)c1csc2nc(-c3cccc(NC(=O)c4ccco4)c3)cn12
pIC50 (HeLa): < 4.70 | pIC50 (MV4-11): < 4.70

CCOC(=O)c1csc2nc(-c3ccc(NC(=O)CCl)cc3)cn12
pIC50 (HeLa): < 4.70 | pIC50 (MV4-11): 5.04

CN(C)CCNC(=O)c1csc2nc(-c3ccc(NC(=O)Nc4cc(C(C)(C)C)on4)cc3)cn12
pIC50 (HeLa): 4.70 | pIC50 (MV4-11): 8.01 | pIC50 [1]: 7.66
